Test [1] relates to rats subjected to dexamethasone-induced muscle loss. The test is described as follows: Dexamethasone-induced muscle loss in rats: soleus muscle mass after 21 days. It is filed as in vivo, Sprague-Dawley rats. The following applies: 200 mg/kg/day white curcumin alone, co-administered with 0.1 mg/kg/day dexamethasone i.p., day 21, FIG. 1, t-test P<0.05. How it is done:
A study was carried out to investigate the effect of a composition comprising HMB and white curcumin (THC) in a well-established animal model for human muscle loss (β-Hydroxy-β-methylbutyrate (HMB) normalizes dexamethasone-induced autophagy-lysosomal pathway in skeletal muscle. Giron M D, Vilchez J D, Shreeram S, Salto R, Manzano M, Cabrera E, Campos N, Edens N K, Rueda R, Lopez-Pedrosa J M. PLoS One. 2015 Feb. 6; 10(2):e0117520. doi: 10.1371/journal.pone.0117520. eCollection 2015).
Experimental design—Male Sprague-Dawley rats (8-10 weeks old) (n=42) having a body weight of 270-310 g were randomly assigned to seven experimental groups (six rats per group). Groups 1-6 were administered 0.1 mg/kg/day dexamethasone (a synthetic glucocorticoid) by intraperitoneal injection for 21 days to induce muscle loss. The dexamethasone was administered at 2 mL/kg of 1.75 mg dexamethasone in 35 mL saline. Group 7 (a sham control) was administered saline without the dexamethasone.
Group 1 (a pathological control) was administered the 0.1 mg/kg/day dexamethasone alone. […]
The body weight of each rat was measured daily. On day 21 the soleus and rectus femoris muscles from each rat were collected and weighed and the lean mass of each rat was recorded. The fore limb and hind limb grip strengths were also measured. […]

In a further test the test system is lean body mass. Particulars: humans; Deutz et al., Clin Nutr. 2013; cited from earlier work.

Turning to `COc1cc(CCC(=O)CC(=O)CCc2ccc(O)c(OC)c2)ccc1O` [white curcumin, 1,7-bis(4-hydroxy-3-methoxyphenyl)heptane-3,5-dione], in test [1], the “soleus muscle mass relative to the pathological control” value was “did not have a significant effect”.
Take `CC(C)(O)CC(=O)O` [HMB, 3-hydroxy-3-methylbutanoic acid]: the “minimum dose of HMB at which benefits (preserving lean body mass and muscle strength) occur” value in the test on lean body mass is reported as 50 mg/kg/day.

Values taken from US20210220301A1, “Pharmaceutical or Nutritional Combination Comprising Beta-Hydroxy-Betamethylbutyrate” (Abbott Laboratories, priority 2016, published 2021).
